Results taken from patent publication US20220009920A1 (GB005, Inc., priority 2020, published 2022).

Columns and labels:
Experiment in all cases: Large panel kinase profiling
Type in all cases: biochemical
Conditions in all cases: 1 μM test article, 1 mM ATP
NUAK1 = target: T1, NUAK1 (Homo sapiens, UniProt O60285)
T1 sequence (O60285 1-661): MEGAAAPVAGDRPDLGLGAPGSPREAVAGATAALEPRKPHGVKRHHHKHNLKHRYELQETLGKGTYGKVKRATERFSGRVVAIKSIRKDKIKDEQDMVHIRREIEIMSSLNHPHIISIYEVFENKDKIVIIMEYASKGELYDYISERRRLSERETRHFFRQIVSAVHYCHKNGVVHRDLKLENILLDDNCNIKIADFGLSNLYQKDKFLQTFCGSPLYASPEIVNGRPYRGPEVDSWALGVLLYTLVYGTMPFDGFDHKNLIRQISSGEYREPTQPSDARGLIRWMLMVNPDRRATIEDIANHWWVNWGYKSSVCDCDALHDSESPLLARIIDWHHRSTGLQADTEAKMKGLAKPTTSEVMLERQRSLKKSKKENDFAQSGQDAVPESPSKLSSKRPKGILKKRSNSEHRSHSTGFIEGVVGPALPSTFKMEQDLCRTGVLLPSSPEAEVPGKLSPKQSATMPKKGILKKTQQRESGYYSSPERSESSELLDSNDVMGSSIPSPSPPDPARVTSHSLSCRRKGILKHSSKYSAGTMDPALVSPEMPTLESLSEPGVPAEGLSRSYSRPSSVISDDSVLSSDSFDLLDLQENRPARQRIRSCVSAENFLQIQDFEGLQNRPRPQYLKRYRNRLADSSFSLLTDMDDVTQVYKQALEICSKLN
In short: (§1)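 Reactions contain 1 mM ATP and 1 μM test article; the CSox peptide sensor reports phosphorylation as fluorescence gain. Temperature is held at 30° C. while signal (360 nm excitation, 485 nm emission) is recorded every 1 min.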

CDK7 = target: T2, CDK7 (Homo sapiens, UniProt P50613)
T2 construct: AssayQuant Technologies, Inc. (ran the panel)
In short: as §1

INSR = target: T3, INSR (Homo sapiens, UniProt P06213)
T3 construct: AssayQuant Technologies, Inc. (service provider)
In short: as §1

EPHB1 = target: T4, EPHB1 (Homo sapiens, UniProt P54762)
T4 sequence (P54762 18-984): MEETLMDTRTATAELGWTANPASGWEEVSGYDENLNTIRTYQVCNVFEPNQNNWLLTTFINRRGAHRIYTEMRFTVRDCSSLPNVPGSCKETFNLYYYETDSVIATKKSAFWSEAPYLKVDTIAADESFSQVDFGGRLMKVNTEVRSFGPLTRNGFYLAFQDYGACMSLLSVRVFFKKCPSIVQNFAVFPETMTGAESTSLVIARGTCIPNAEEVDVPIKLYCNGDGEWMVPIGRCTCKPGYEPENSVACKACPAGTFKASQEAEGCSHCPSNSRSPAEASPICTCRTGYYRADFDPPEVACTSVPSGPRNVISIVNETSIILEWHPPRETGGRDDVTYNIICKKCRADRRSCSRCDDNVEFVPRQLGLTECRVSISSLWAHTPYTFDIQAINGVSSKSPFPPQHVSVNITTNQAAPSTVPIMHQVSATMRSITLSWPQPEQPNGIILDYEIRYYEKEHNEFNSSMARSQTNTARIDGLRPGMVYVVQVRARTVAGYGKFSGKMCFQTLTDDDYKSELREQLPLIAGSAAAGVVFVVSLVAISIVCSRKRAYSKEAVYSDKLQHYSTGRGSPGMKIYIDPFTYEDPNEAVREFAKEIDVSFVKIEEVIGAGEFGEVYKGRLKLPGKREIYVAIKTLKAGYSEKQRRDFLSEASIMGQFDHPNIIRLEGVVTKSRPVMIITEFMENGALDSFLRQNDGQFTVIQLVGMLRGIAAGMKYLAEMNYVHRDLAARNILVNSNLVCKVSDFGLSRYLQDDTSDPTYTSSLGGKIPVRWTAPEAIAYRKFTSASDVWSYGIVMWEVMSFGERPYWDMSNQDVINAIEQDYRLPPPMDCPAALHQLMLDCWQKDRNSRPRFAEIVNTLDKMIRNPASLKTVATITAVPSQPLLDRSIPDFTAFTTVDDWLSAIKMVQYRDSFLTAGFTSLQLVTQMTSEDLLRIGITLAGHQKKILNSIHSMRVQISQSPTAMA
In short: as §1

SK1 = target: T5, SK1 (Homo sapiens, UniProt P57059)
T5 construct: AssayQuant Technologies, Inc. (contract assay)
In short: as §1

CRIK/CIT = target: T6, CRIK/CIT (Homo sapiens, UniProt O14578)
T6 construct: AssayQuant Technologies, Inc. (ran the panel)
In short: as §1

ALK = ALK (Homo sapiens, UniProt Q9UM73)
In short: as §1

STK3/MST2 = target: T7, STK3/MST2 (Homo sapiens, UniProt Q13188)
T7 construct: AssayQuant Technologies, Inc. (contract assay)
T7 sequence (Q13188 1-491): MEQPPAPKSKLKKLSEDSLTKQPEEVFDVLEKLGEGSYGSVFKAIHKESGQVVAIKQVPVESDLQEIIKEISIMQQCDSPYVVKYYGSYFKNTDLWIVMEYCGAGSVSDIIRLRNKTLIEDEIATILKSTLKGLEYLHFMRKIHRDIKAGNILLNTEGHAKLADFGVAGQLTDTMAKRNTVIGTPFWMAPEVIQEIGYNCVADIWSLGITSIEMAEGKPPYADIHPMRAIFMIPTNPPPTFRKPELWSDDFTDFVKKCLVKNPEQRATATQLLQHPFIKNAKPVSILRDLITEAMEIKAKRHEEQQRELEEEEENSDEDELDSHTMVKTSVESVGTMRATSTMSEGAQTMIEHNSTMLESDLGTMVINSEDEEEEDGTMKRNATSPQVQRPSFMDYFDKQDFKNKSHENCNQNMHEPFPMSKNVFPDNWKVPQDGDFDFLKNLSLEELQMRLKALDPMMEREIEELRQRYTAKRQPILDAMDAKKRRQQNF
In short: as §1

ALK, sequence (Q9UM73 19-1620): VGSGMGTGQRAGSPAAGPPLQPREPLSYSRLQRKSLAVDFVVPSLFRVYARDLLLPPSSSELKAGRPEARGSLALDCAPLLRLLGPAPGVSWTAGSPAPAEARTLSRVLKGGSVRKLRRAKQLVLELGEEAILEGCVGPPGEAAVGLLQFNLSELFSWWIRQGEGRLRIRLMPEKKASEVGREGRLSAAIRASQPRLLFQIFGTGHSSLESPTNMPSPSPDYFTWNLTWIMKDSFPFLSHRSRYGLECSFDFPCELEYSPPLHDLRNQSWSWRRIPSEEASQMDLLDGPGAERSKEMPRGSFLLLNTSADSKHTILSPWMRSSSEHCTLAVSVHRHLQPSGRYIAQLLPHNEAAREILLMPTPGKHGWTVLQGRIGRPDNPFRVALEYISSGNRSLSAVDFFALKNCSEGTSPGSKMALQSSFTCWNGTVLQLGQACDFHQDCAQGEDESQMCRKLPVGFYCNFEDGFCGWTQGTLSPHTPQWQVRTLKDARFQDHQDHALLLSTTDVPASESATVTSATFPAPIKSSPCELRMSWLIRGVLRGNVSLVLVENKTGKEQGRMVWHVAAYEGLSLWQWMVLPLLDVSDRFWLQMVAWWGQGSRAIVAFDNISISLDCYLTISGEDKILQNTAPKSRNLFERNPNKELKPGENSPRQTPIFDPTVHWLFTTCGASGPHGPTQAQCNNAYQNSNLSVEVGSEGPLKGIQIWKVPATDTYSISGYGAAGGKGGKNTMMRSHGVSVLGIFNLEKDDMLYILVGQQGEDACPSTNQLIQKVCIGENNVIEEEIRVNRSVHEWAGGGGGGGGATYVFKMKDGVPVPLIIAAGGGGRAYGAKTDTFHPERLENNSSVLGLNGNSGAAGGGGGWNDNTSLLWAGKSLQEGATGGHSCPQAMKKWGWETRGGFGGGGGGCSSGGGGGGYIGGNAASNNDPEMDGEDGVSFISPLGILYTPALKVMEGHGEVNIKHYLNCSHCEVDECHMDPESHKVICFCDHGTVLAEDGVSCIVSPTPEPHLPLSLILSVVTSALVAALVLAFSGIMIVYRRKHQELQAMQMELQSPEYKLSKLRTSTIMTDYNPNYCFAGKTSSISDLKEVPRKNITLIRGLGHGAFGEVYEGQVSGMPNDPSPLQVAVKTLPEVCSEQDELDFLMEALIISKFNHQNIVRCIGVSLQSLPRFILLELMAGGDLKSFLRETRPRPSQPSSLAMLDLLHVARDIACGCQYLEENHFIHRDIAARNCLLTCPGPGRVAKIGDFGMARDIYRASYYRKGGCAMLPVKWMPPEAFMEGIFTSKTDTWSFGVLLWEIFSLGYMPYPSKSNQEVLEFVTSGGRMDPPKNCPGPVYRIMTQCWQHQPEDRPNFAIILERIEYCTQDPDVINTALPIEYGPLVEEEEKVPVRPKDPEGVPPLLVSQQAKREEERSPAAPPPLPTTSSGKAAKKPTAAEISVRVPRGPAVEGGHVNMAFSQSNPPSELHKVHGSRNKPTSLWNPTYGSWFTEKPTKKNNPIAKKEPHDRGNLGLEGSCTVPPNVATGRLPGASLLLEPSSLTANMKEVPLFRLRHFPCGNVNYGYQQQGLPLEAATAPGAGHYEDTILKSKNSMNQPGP
T3 sequence (P06213 28-1382, species assumed): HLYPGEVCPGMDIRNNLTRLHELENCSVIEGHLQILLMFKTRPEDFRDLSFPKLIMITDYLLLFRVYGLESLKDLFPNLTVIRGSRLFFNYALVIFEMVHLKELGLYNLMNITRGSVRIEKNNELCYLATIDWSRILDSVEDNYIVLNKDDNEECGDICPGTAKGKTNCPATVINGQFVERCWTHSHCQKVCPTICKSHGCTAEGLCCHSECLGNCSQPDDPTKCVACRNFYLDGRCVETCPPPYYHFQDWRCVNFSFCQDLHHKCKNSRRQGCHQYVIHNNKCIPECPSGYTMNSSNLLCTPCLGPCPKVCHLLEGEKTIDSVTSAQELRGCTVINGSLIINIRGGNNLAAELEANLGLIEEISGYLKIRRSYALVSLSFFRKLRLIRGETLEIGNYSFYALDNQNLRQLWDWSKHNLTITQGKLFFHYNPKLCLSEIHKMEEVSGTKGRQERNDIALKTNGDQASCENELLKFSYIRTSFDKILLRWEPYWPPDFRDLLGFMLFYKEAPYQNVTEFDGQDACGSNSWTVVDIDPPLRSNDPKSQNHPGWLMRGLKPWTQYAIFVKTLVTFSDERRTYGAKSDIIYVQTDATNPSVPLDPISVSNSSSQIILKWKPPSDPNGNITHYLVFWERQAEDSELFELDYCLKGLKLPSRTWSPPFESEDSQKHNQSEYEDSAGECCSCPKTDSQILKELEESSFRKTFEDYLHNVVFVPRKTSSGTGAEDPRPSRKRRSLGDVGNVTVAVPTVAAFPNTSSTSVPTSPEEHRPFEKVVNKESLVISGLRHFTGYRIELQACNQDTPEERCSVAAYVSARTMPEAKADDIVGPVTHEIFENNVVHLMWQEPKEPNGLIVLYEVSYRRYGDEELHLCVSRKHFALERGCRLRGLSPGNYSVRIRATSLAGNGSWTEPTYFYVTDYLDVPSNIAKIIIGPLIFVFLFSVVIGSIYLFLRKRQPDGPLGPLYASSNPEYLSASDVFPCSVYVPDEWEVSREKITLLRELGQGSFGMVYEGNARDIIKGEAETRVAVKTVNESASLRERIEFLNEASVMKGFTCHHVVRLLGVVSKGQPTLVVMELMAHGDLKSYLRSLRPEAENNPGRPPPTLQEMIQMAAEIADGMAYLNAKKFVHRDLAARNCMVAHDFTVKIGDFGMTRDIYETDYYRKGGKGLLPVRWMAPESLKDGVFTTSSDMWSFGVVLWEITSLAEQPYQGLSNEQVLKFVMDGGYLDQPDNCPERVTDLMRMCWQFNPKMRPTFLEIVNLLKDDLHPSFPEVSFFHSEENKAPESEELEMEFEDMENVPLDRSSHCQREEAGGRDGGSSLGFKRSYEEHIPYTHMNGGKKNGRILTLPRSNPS
T2 sequence (P50613 whole entry, species assumed): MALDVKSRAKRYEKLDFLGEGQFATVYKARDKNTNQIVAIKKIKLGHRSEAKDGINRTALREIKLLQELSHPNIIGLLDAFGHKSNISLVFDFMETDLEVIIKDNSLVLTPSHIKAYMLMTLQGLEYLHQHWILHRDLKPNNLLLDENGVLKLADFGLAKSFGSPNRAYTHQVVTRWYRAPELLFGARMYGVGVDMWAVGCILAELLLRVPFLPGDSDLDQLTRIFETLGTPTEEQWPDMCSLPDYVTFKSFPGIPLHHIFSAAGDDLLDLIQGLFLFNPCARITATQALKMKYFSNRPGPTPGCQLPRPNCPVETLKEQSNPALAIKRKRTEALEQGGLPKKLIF
T2 sequence (P51946 whole entry partner, species assumed): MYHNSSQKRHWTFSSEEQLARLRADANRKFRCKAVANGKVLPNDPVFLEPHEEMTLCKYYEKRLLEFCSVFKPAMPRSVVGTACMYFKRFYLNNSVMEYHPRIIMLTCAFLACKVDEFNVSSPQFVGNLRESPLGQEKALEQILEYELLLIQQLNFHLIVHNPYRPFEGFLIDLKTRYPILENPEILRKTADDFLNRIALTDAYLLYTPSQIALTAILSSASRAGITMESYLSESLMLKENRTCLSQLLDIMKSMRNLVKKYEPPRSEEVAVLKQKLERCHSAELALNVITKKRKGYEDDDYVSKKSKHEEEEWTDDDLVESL
T2 sequence (P51948 whole entry partner, species assumed): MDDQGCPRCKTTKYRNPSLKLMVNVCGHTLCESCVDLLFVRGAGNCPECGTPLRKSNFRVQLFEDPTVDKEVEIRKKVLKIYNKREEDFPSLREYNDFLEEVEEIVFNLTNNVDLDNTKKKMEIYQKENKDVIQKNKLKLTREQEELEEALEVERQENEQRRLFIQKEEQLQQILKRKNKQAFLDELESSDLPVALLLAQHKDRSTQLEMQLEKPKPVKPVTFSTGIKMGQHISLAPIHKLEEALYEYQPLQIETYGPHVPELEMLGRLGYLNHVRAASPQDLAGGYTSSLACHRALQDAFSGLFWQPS
T5 sequence (P57059 whole entry): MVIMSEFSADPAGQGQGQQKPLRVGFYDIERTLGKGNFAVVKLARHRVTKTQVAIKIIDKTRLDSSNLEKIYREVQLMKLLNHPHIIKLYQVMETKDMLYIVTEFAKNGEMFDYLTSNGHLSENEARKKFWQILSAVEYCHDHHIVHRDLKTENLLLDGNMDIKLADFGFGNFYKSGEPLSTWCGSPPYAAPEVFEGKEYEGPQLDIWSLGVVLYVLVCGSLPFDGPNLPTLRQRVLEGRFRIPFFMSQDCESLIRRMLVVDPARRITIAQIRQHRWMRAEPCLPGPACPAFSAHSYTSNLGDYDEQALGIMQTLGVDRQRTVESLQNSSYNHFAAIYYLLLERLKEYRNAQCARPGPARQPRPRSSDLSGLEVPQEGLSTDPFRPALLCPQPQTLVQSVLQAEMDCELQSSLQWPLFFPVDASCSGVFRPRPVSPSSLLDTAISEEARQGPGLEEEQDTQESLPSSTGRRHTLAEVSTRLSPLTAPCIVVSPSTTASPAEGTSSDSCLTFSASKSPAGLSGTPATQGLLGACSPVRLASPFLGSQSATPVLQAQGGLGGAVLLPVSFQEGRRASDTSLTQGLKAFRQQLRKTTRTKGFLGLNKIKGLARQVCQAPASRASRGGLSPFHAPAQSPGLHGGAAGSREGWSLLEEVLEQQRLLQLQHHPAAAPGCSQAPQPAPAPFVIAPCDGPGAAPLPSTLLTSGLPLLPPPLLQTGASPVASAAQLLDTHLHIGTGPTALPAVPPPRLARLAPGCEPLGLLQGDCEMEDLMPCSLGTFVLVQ

| Structure (SMILES) | inhibition at 1 µM (NUAK1) [%] | inhibition at 1 µM (CDK7) [%] | inhibition at 1 µM (INSR) [%] | inhibition at 1 µM (EPHB1) [%] | inhibition at 1 µM (SK1) [%] | inhibition at 1 µM (CRIK/CIT) [%] | inhibition at 1 µM (ALK) [%] | inhibition at 1 µM (STK3/MST2) [%] |
| --- | --- | --- | --- | --- | --- | --- | --- | --- |
| C=CC(=O)N1CCCC(c2c(F)cc(C(N)=O)c3[nH]c4c(c23)CCCCC4)C1 (single isomer, unassigned) [Compound 5-6] | 3.8 | -10.1 | 10.3 | 14.5 | -13.6 | -9.9 | -26.4 | -13.7 |
| C=CC(=O)N1CCC[C@@H](c2c(F)cc(C(N)=O)c3[nH]c4c(c23)CC2(CC4)CC2)C1 [Compound 6-2, (S)-5-(1-acryloylpiperidin-3-yl)-6-fluoro-1,2,4,9-tetrahydrospiro[carbazole-3,1′-cyclopropane]-8-carboxamide] | 13.2 | -6 | -6.6 | 12.4 | 4.6 | 9.1 | 11.7 | -25.3 |
| C=CC(=O)N1CCC[C@@H](c2c(F)cc(C(N)=O)c3[nH]c4c(c23)CCC4)C1 [Compound 10-2, (S)-8-(1-acryloylpiperidin-3-yl)-7-fluoro-1,2,3,4-tetrahydrocyclo-penta[b]indole-5-carboxamide] | -9.3 | 14.1 | -6 | -3.1 | 13.5 | 11.1 | -2.7 | -14.4 |
